Experimental data published in the CheMixHub ionic liquid set.

Test: xn = mol fraction of the nth substance listed

CC[N+](C)(CC)CCOC.F[B-](F)(F)F + CC[N+](C)(CC)CCOC.O=S(=O)([N-]S(=O)(=O)C(F)(F)F)C(F)(F)F
100 kPa
Conditions | electrical conductivity [S/m]
293.15 K, x2 = 0.1 | 0.112
298.15 K, x2 = 0.3 | 0.19
298.15 K, x2 = 0.7 | 0.227
298.15 K, x2 = 0.9 | 0.267
303.15 K, x2 = 0.9 | 0.341
308.15 K, x2 = 0.3 | 0.325
308.15 K, x2 = 0.5 | 0.356
313.15 K, x2 = 0.2 | 0.388
313.15 K, x2 = 0.3 | 0.409
313.15 K, x2 = 0.8 | 0.495
318.15 K, x2 = 0.4 | 0.525
318.15 K, x2 = 0.7 | 0.573
323.15 K, x2 = 0.2 | 0.595
323.15 K, x2 = 0.3 | 0.612
328.15 K, x2 = 0.2 | 0.722
328.15 K, x2 = 0.6 | 0.806
333.15 K, x2 = 0.1 | 0.892
333.15 K, x2 = 0.5 | 0.911
333.15 K, x2 = 0.7 | 0.948
338.15 K, x2 = 0.7 | 1.1
343.15 K, x2 = 0.2 | 1.19
343.15 K, x2 = 0.3 | 1.19
343.15 K, x2 = 0.8 | 1.25

II + CCCCCCCCCCCC[n+]1ccn(C)c1.[I-]
Conditions | electrical conductivity [S/m]
298 K, 101.3 kPa, x2 = 0.2 | 2.02

N[C@@H](CO)C(=O)O + CCCC[n+]1ccn(C)c1.[Br-] + O
viscosity [mPa·s], 101.3 kPa
Conditions | x1 = 0.0003603, x2 = 0 | x1 = 0.0007203, x2 = 0 | x1 = 0.001078, x2 = 0 | x1 = 0.00144, x2 = 0 | x1 = 0.001781, x2 = 0 | x1 = 0.002158, x2 = 0 | x1 = 0.002516, x2 = 0
293.15 K | 1.007 | 1.012 | 1.018 | 1.023 | 1.028 | 1.033 | 1.039
298.15 K | 0.897 | 0.902 | 0.907 | 0.911 | 0.916 | 0.92 | 0.925
303.15 K | 0.804 | 0.809 | 0.813 | 0.818 | 0.822 | 0.827 | 0.831
308.15 K | 0.727 | 0.73 | 0.735 | 0.739 | 0.744 | 0.748 | 0.753
313.15 K | 0.661 | 0.664 | 0.668 | 0.673 | 0.677 | 0.682 | 0.686

O=S(=O)([O-])C(F)(F)F.[Li+] + CC[n+]1ccn(C)c1.O=S(=O)([N-]S(=O)(=O)C(F)(F)F)C(F)(F)F
electrical conductivity [S/m], 101 kPa
Conditions | 288.15 K | 298.15 K | 333.15 K
x1 = 0.01919 | 0.57 | 0.819 | 2
x2 = 0.9274 | – | 0.672 | 1.71
x2 = 0.9587 | 0.515 | 0.766 | 1.93

CCc1n(S(=O)(=O)O)cc[n+]1S(=O)(=O)O.O=C([O-])C(F)(F)F + CC#N
101 kPa
Conditions | electrical conductivity [S/m]
278.15 K, x1 = 0.02551 | 1.22
283.15 K, x1 = 0.02551 | 1.21
288.15 K, x1 = 0.02551 | 1.2
293.15 K, x1 = 0.02551 | 1.11
298.15 K, x1 = 0.0052 | 0.323
298.15 K, x1 = 0.0104 | 0.517
298.15 K, x1 = 0.0155 | 0.736
298.15 K, x1 = 0.0205 | 0.989
298.15 K, x1 = 0.0255 | 1.11
298.15 K, x1 = 0.02551 | 1.11
303.15 K, x1 = 0.02551 | 0.823
308.15 K, x1 = 0.02551 | 0.824
313.15 K, x1 = 0.02551 | 0.816
318.15 K, x1 = 0.02551 | 0.767
323.15 K, x1 = 0.02551 | 0.755
328.15 K, x1 = 0.02551 | 0.689
333.15 K, x1 = 0.02551 | 0.652

CC[n+]1ccn(C)c1.O=S(=O)([O-])C(F)(F)F + [I-].[Li+]
101 kPa, x1 = 1
Conditions | electrical conductivity [S/m]
288.15 K | 0.605
298.15 K | 0.859
333.15 K | 2.24

CC[n+]1ccn(C)c1.[I-] + CCO
Conditions | electrical conductivity [S/m]
298.15 K, 100 kPa, x1 = 0.4385 | 2.22

CCCC[P+](CC)(CCCC)CCCC.[Br-] + OCCO
101 kPa, x1 = 0.333
Conditions | viscosity [mPa·s]
303.15 K | 43.82
313.15 K | 29.04
323.15 K | 20.08
333.15 K | 14.44
343.15 K | 10.69
353.15 K | 8.22

CC[n+]1ccn(C)c1.O=C([O-])C(F)(F)C(F)(F)C(F)(F)C(F)(F)F + O
101 kPa
Conditions | viscosity [mPa·s]
298.15 K, x1 = 0.02217 | 2.59
298.15 K, x1 = 0.1009 | 10.41
298.15 K, x1 = 0.2367 | 20.95
298.15 K, x1 = 0.4266 | 36.3
308.15 K, x1 = 0.03108 | 2.57
308.15 K, x1 = 0.04277 | 3.44
308.15 K, x1 = 0.08573 | 6
308.15 K, x1 = 0.1458 | 9.48
308.15 K, x1 = 0.2011 | 12.32
308.15 K, x1 = 0.2621 | 15.23
308.15 K, x1 = 0.3007 | 17.04
318.15 K, x1 = 0.02217 | 1.616
318.15 K, x1 = 0.1458 | 6.88
318.15 K, x1 = 0.1625 | 7.47

CC[n+]1ccn(C)c1.O=S(=O)([O-])C(F)(F)F + CN(C)C=O + OCCO
viscosity [mPa·s], 100 kPa
Conditions | 298.15 K | 303.15 K | 308.15 K | 313.15 K | 318.15 K | 323.15 K
x2 = 0.0208, x3 = 0.1868 | 29.3 | 24.8 | 21.15 | 18.23 | 15.83 | 13.8
x2 = 0.0306, x3 = 0.198 | 27.9 | 23.6 | 20.16 | 17.39 | 15.11 | 13.18
x2 = 0.0398, x3 = 0.2206 | 25.8 | 21.9 | 18.69 | 16.15 | 14.06 | 12.27
x2 = 0.0679, x3 = 0.2281 | 23.5 | 20 | 17.13 | 14.83 | 12.93 | 11.29
x2 = 0.0847, x3 = 0.2475 | 21.3 | 18.2 | 15.61 | 13.54 | 11.83 | 10.34
x2 = 0.1005, x3 = 0.2658 | 19.4 | 16.5 | 14.24 | 12.39 | 10.85 | 9.48
x2 = 0.1248, x3 = 0.2717 | 17.7 | 15.2 | 13.09 | 11.41 | 10.01 | 8.76
x2 = 0.1637, x3 = 0.2744 | 15.6 | 13.4 | 11.59 | 10.14 | 8.92 | 7.81
x2 = 0.1852, x3 = 0.2798 | 14.3 | 12.3 | 10.67 | 9.35 | 8.25 | 7.23
x2 = 0.2057, x3 = 0.2849 | 13.1 | 11.3 | 9.84 | 8.64 | 7.64 | 6.7
x2 = 0.2567, x3 = 0.2666 | 11.6 | 10.1 | 8.83 | 7.78 | 6.9 | 6.06
x2 = 0.3179, x3 = 0.2469 | 9.96 | 8.69 | 7.63 | 6.76 | 6.02 | 5.29
x2 = 0.3633, x3 = 0.2306 | 8.7 | 7.63 | 6.74 | 6 | 5.34 | 4.85
x2 = 0.4128, x3 = 0.2106 | 7.83 | 6.89 | 6.11 | 5.45 | 4.89 | 4.31
x2 = 0.469, x3 = 0.1967 | 6.48 | 5.75 | 5.13 | 4.61 | 4.16 | 3.68
x2 = 0.5074, x3 = 0.1828 | 5.85 | 5.22 | 4.68 | 4.22 | 3.85 | 3.19
x2 = 0.5624, x3 = 0.1668 | 4.75 | 4.27 | 3.86 | 3.51 | 3.19 | 2.84
x2 = 0.6135, x3 = 0.152 | 3.92 | 3.55 | 3.24 | 2.96 | 2.71 | 2.43
x2 = 0.6611, x3 = 0.1382 | 3.32 | 3.02 | 2.76 | 2.53 | 2.32 | 2.15
x2 = 0.7126, x3 = 0.1243 | 2.61 | 2.41 | 2.23 | 2.07 | 1.92 | 1.74
x2 = 0.7536, x3 = 0.1124 | 2.33 | 2.14 | 1.98 | 1.83 | 1.7 | 1.58
x2 = 0.7982, x3 = 0.1005 | 1.83 | 1.7 | 1.59 | 1.49 | 1.4 | 1.29
x2 = 0.8449, x3 = 0.0889 | 1.53 | 1.42 | 1.33 | 1.24 | 1.17 | 1.09
x2 = 0.8948, x3 = 0.0712 | 1.22 | 1.14 | 1.07 | 1.01 | 0.95 | 0.89

CCCCC[N+](CCCCC)(CCCCC)CCCCC.[Br-] + CCCCCCCCCCCCOS(=O)(=O)[O-].[Na+] + O
viscosity [mPa·s], 100 kPa
Conditions | x2 = 1.81e-06, x1 = 0.0001802 | x2 = 3.62e-06, x1 = 0.0001802 | x2 = 5.43e-06, x1 = 0.0001802 | x2 = 7.23e-06, x1 = 0.0001802 | x2 = 9.04e-06, x1 = 0.0001802 | x2 = 1.085e-05, x1 = 0.0001802 | x2 = 1.266e-05, x1 = 0.0001802 | x2 = 1.447e-05, x1 = 0.0001802 | x2 = 1.628e-05, x1 = 0.0001802 | x2 = 1.808e-05, x1 = 0.0001802
293.15 K | 1.024 | 1.026 | 1.027 | 1.028 | 1.028 | 1.029 | 1.029 | 1.029 | 1.03 | 1.03
298.15 K | 0.914 | 0.916 | 0.917 | 0.917 | 0.919 | 0.92 | 0.921 | 0.921 | 0.922 | 0.922
303.15 K | 0.8 | 0.801 | 0.802 | 0.803 | 0.803 | 0.803 | 0.803 | 0.803 | 0.804 | 0.805
308.15 K | 0.723 | 0.723 | 0.724 | 0.724 | 0.724 | 0.724 | 0.725 | 0.725 | 0.726 | 0.726
313.15 K | 0.658 | 0.659 | 0.66 | 0.66 | 0.661 | 0.661 | 0.661 | 0.661 | 0.662 | 0.662
318.15 K | 0.604 | 0.605 | 0.605 | 0.605 | 0.606 | 0.606 | 0.606 | 0.606 | 0.606 | 0.606

CCCC[P+](CCCC)(CCCC)CCCC.[Br-] + OCCO
101.3 kPa, x1 = 0.333
Conditions | viscosity [mPa·s]
293.15 K | 122
323.15 K | 29.9

C[NH+](C)C.O=S(=O)([O-])O + O
298.15 K, 101 kPa
Conditions | viscosity [mPa·s]
x2 = 0.0727 | 4.98
x2 = 0.2456 | 4.64
x2 = 0.3339 | 4.43
x2 = 0.5675 | 3.69
x2 = 0.8484 | 2.18
x2 = 0.9552 | 1.3
